Experimental data reported in patent publication US20150005236A1, “USE OF BETA-NERVE GROWTH FACTOR FOR INDUCING OVULATION IN MAMMALS” (INSTITUT NATIONAL DE LA RECHERCHE AGRONOMIQUE, priority 2012, published 2015).
Values joined by “and” are separate entries in the source; they are usually repeats but may differ in a detail not shown here. Equal values may be shown once. Marks after values point to notes of the source that are not given here.

How the values were obtained:
female alpacas [1] = experiment: Induction of ovulation in alpacas (transrectal ultrasonography, plasma progesterone RIA); assay type: in vivo, alpaca; conditions: for CL diameter: corpus luteum on day 8 following i.m. treatment; for CL diameter / Progesterone conc.: mean ± sem; for corpus lutea detected, % of alpacas: day 8 following treatment; for corpus lutea detected, % of alpacas / dominant follicle absent, % of female alpacas: n=5/group; for Progesterone conc.: plasma, day 8 following i.m. treatment, animals that did not ovulate excluded; for dominant follicle absent, % of female alpacas: ultrasonography 28-30 h following treatment
Method: The emergence of dominant follicles was synchronised with the 0.8 ml (200 μg) prostaglandin F2α (Estrumate®, Intervet) i.m. followed by 1 ml (4 μg) of Buserelin (Receptal®, Intervet) i.m. 24 h later, then luteolysis was induced 11 days after induced ovulation with 0.8 ml Estrumate®.
To determine the presence of a dominant follicle, females were restrained in sternal recumbency and examined by transrectal ultrasonography using an Aloka SSD-500 scanner with 7.5 MHz linear array transducer (Aloka Co., Japan). The ovaries of […] were scanned. Females with a newly emerged dominant follicle of 6-10 mm in diameter were randomly assigned to receive 1 of 4 treatments: (1) 1 ml 0.9% saline in, (n 5), (2) 1 ml (4 μg) Receptal® (Intervet) i.m (n=5), (3) 2 ml alpaca's seminal plasma i.m. collected as described above for Experiment ˜1 (n=5), (4) 1 mg recombinant active human β-NGF protein (Sino Biological, Japan) Lm. (n=5).
Animals were examined by transrectal ultrasonography 28-30 h following treatments to detect ovulation. Ovulation was defined as the absence of the dominant follicle that was observed during the previous scan at the time of treatment. Ultrasonography was also repeated 8 days following treatment, to confirm ovulation and determine the size of the corpus luteum.
(§1) Female alpacas were cannulated and jugular venous blood samples (5 ml) were collected for detection of luteinising hormone immediately before treatment, every 30 min for 4 h, then every 1 h for 4 h and finally at 12 h post-treatment. Jugular venous blood samples (5 ml) were also collected on day 8 at the time of ultrasonography for detection of plasma progesterone. Samples were placed in heparinised tubes, centrifuged at 2000×g for 10 min, the plasma decanted and stored at −20° C. until analysis.
(§2) Plasma LH concentration were determined using a RIA. Plasma progesterone concentrations were determined using a commercial double antibody RIA kit (Coat-a-Count).
International, Hemel Hempstead, UK) with post-hoc comparisons using the least significant difference (LSD) test where appropriate. Far all analyses P<0.05 was considered significant.
In this experiment, female alpacas (n 5/group) were administered i.m. with (1) 1 ml 0.9% saline, (2) 1 ml of the GnRH agonist Receptal® (3) 2 ml alpaca seminal plasma, or (4) 1 mg human β-NGF. Ovulation was detected by transrectal ultrasonography […] following treatment and confirmed by plasma progesterone concentrations.

female alpacas [2] = experiment: LH concentration in peripheral blood of female alpacas (RIA); assay type: in vivo, alpaca; conditions: for LH concentration in peripheral blood: 12 hours after i.m. injection, versus saline; for peak of LH, time after injection: i.m. injection, peripheral blood
Method: as §1, §2
The evolution of the concentration of LH in peripheral blood was assessed for 12 hours after the injections.

female rabbits = experiment: Induction of ovulation in female rabbits; assay type: in vivo, rabbit; conditions: for Ovulation (%): ovulation frequency, i.m. injection
Method: A herd of 83 female rabbits of proven fertility was used in this experiment.
The female rabbits were synchronized by an injection of eGG 48 hours before insemination. Then they were inseminated with a mixture of semen from several males. The same mixture was used for all females.
The female rabbits were killed 48 hours after insemination. The ovaries were collected to proceed to counting the corpora lutea, pre-ovulatory follicles of diameter higher than 1 mm and atretic follicles, and to identify potential pseudopregnant females. The oviducts were infused in order to count oocytes and embryos and to evaluate the developmental stage of the latter (number of blastomeres of the embryo).
The results were analysed with the software SAS using a fixed-effects variance analysis, taking into account the fixed effect of the treatment (4 levels: GnRH, β-NGF, PS and saline).

mouse GnRH neurons = experiment: Calcium imaging of primary culture of GnRH neurons; assay type: cell-based
Excerpt: A model of primary culture of GnRH neurons has been developed from explants of olfactory placodes of mouse embryos (Constantin et al., 2009). This model has three stages of in vitro development: from 1 to 3 days, intra-explant migration, corresponding to an in vivo intranasal migration; from 3 to […] days, out-of explant migration, corresponding to an in vivo intracerebral development; from 7 to 15 days, occurrence of the pulsatile secretion, corresponding to neuronal and network maturation.
This experiment was carried out between 7 and 15 days of in vitro development corresponding to a stage of mature GnRH neurons having a pulsatile GnRH secretion.
Embryos were obtained from timed pregnant animals. Nasal pits of embryonic d 11.5 staged Swiss mice were isolated under aseptic conditions and refrigerated for 1 h in Gey's balanced salt solution (Eurobio, Les Ulis, France) enriched with glucose (Sigma-Aldrich Corp., St. Louis, Mo.). Nasal explants were adhered onto coverslips by a chicken plasma (local source)/thrombin (Sigma-Aldrich) clot. […]
These variations were measured by “time lapse” imaging in the primary culture of GnRH neurons. A quantitative analysis was carried out for single neurons but also overall for a group of neurons constituting part of the network. […]
Calcium Green-1 was visualized using an inverted microscope (DM-IRB; Leica. Microsystems GmbH, Wetzlar, Germany), through a ×20 fluorescence objective, and acquired using a cooled intensified charge-coupled device camera (CoolSNAP fx; Rapper Instruments, Photometrics, Tucson, Ariz.). Experiments were piloted by Metafluor (Molecular Devices, Downingtown, Pa.), controlling the shutter and the acquisition (every 20 sec for 3 h), Excitation wavelengths were provided through a medium-width excitation bandpass filter at 465-495 nm, and emission was monitored through a 40-nm bandpass centered on 535 nm. Fluctuations in [Ca2+]i were analyzed a posteriori with Metafluor software. […] Calcium Green-1 fluorescence intensity was plotted and analyzed with Excel (Microsoft Corp., Redmond, Wash.). […]

[3] = tested on: glial cells associated with GnRH neurons; experiment: Immunohistochemistry of the relations between GnRH neurons and glial cells; assay type: cell-based, mouse; conditions: 20 min application at 75 nM, then K+ stimulation; not in control conditions
Method: An immunohistochemical approach was used to characterize the cells present in the culture, using anti-GnRH antibody for the GnRH neurons, anti-S100b antibody for the glial cells and anti-P75 antibody (P75 is a NGF-specific receptor). The analysis was carried out by confocale microscopy.
Nasal explants were fixed in 4% formaldehyde [45-60 min, rinsed in PBS (3×10 min)], blocked (1 h, 10% normal goat serum, 0.3% Triton X-100, and 0.1% sodium azide), rinsed in PBS (3×8 min), and incubated overnight in anti-GnRH-1 (1:3000, SW-1). Antibodies were diluted in PBS containing 10% normal goat serum, 0.3% Triton X-100, and 0.1% sodium azide. The next day, the explants were rinsed in PBS (3×8 min), incubated in secondary antibody ant rabbit Alexa 546 (1:500, 1 h; Molecular Probes, Inc., Eugene Oreg.) and rinsed in PBS (4×8 min). Explants incubated with fluorescent dies were mounted with Vector Shield (Vector Laboratories).
The relations between GnRH neurons and glial cells have been analyzed by immunohistochemistry after 20 min of recording in calcic imaging, for the control and after 20 min of application of β-NGF at 75 nM in the culture medium, and after K^+ stimulation. The glial cells retract after K^+ stimulation in the presence of β-NGF, but not in control conditions.

[4] = 48 hours after insemination, estimated mean values

## beta-Nerve Growth Factor [β-NGF]
Female alpacas [1]
  CL diameter: 10.3 ± 1.03^a mm
  corpus lutea detected, % of alpacas: 80%
  Progesterone conc.: 3.28 ± 0.681^b ng/ml
  dominant follicle absent, % of female alpacas: 80%
Female alpacas [2]; 1 mg i.m.
  time to LH surge after treatment: ≤ 8 h
Female alpacas [2]
  LH concentration in peripheral blood: significant increase
  peak of LH, time after injection: 3 h
Female rabbits
  Ovulation (%): 25% and 25.0^b %
Mouse GnRH neurons; 75 nM in the culture medium
  percent of synchronization events involving more than 70% of the recorded GnRH neurons: increase
Mouse GnRH neurons; 20 min after application at 75 nM
  synchronization of calcic events between GnRH neurons: increased
Mouse GnRH neurons; 20 min after application at 75 nM in the culture medium, versus control (about 15 s)
  fold decrease in average time between two calcium events: 3
[3]
  glial cells after K+ stimulation: retract

## GnRH: 0.2 ml of Fertagyl® containing 20 μg of GnRH (Gonadotrophine Releasing Hormone), positive control (QHWSYGLRPG; Gonadoliberin-1; UniProt P01148 24-33, looked up)
Female rabbits; [4]
  Collected embryos: 12.09^a
  Corpora lutea (number by injected female rabbit): 13.82^a
  Haemorrhagic follicles: 1.36^a
Female rabbits
  Ovulation (%): 100% and 100^a %

## CCNC(=O)[C@@H]1CCCN1C(=O)[C@H](CCCNC(=N)N)NC(=O)[C@H](CC(C)C)NC(=O)[C@@H](COC(C)(C)C)NC(=O)[C@H](Cc1ccc(O)cc1)NC(=O)[C@H](CO)NC(=O)[C@H](Cc1c[nH]c2ccccc12)NC(=O)[C@H](Cc1cnc[nH]1)NC(=O)[C@@H]1CCC(=O)N1 [Receptal, Buserelin, reference compound]
Female alpacas [1]
  CL diameter: 9.3 ± 1.49^a mm
  corpus lutea detected, % of alpacas: 80%
  Progesterone conc.: 4.01 ± 0.897^b ng/ml
  dominant follicle absent, % of female alpacas: 80%
Female alpacas [2]
  LH concentration in peripheral blood: significant increase
  peak of LH, time after injection: 3 h
